The text below walks through data of patent publication USRE42890E1, “Furazanobenzimidazoles” (Basilea Pharmaceutica AG, priority 2003, dated 2011).

SMILES strings stand for the structures. Some results are limits rather than exact numbers.

In assay [1] the test system is HT1080. In words: MTS proliferation assay, HT1080. Format: cell-based, human. The note with it: HT1080, 72 h incubation; read-out: MTS proliferation assay IC 50 HT1080. The essentials: (§1)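 Proliferation: RPMI-1640/FCS complete medium, 37 °C, 7.5% CO2, cells plated 24 h pre-dose; compounds at 10, 3, 1, 0.3 μM final for 72 h; MTS, 492 nm.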
Assay [2] deals with MRC5. In words: MTS proliferation assay, MRC5. Format: cell-based. The conditions noted are these: MRC5, 72 h incubation; read-out: MTS proliferation assay IC 50 MRC5. The essentials:
(§2)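 Viability after 72 h compound exposure at 10, 3, 1 and 0.3 μM final was scored by MTS absorbance (492 nm, 3 h reagent incubation), with cells kept in RPMI-1640 containing 5% or 10% fetal calf serum.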
Background: Tetrazolium dyes change colour on reduction, which living cells bring about.

The subject of assay [3] is Jily. Nature of the assay: MTS proliferation assay, Jily. Format: cell-based. The conditions noted are these: 72 h incubation, read-out: MTS proliferation assay IC 50 Jily. In outline: as §2
Assay [4] has as its system Jurkat. Nature of the assay: MTS proliferation assay, Jurkat. Format: cell-based, human. The conditions noted are these: 72 h incubation, read-out: MTS proliferation assay IC 50 Jurkat. The essentials:
as §1

In assay [5] the test system is adherent cells or suspension cells. Nature of the assay: Hoechst 33342 nuclear staining (fraction of apoptotic nuclei). Format: cell-based. More on the design: key: 0 relating to no activity; 1 relating to weak activity comprising less than 70% of the cells; score 2 relating to strong activity comprising more than 70% of the cells.
Assay [6] has as its system HeLa. Nature of the assay: MTS proliferation assay, HeLa. The conditions noted are these: 72 h incubation, read-out: MTS proliferation assay IC 50 HeLa. Format: cell-based, human. The essentials:
as §1

Consider `COc1ccc(C(=O)Cn2c(-c3nonc3NCCC#N)nc3ccccc32)cc1` [Example 48], for which the IC50 was 0.01 to 0.1 µM in assay [1]; 0.01 to 0.1 µM in assay [2]; 0.01 to 0.1 µM in assay [3]; less than 0.01 µM in assay [4]; 0.01 to 0.1 µM in assay [6]. Also, the “Hoechst 33342 nuclear staining score” value is 0 in assay [5] (H460, conc 0.01 μm); 0 in assay [5] (H460, conc 0.1 μm); 2 (score 2 relating to strong activity comprising more than 70% of the cells) in assay [5] (H460, conc 1 μm); 0 in assay [5] (HeLa, conc 0.01 μm); 2 (score 2 relating to strong activity comprising more than 70% of the cells) in assay [5] (HeLa, conc 0.1 μm); 2 (score 2 relating to strong activity comprising more than 70% of the cells) in assay [5] (HeLa, conc 1 μm). Also, the “Hoechst 33342 nuclear staining score” value is reported as 0 in assay [5] (Jily, conc 0.01 μm); 2 (score 2 relating to strong activity comprising more than 70% of the cells) in assay [5] (Jily, conc 0.1 μm); 2 (score 2 relating to strong activity comprising more than 70% of the cells) in assay [5] (Jily, conc 1 μm); 0 in assay [5] (Jurkat, conc 0.01 μm); 2 (score 2 relating to strong activity comprising more than 70% of the cells) in assay [5] (Jurkat, conc 0.1 μm); 2 (score 2 relating to strong activity comprising more than 70% of the cells) in assay [5] (Jurkat, conc 1 μm). The “Hoechst 33342 nuclear staining score” value is recorded as 0 in assay [5] (MRC5, conc 0.01 μm); 2 (score 2 relating to strong activity comprising more than 70% of the cells) in assay [5] (MRC5, conc 0.1 μm); 2 (score 2 relating to strong activity comprising more than 70% of the cells) in assay [5] (MRC5, conc 1 μm); 0 in assay [5] (PBLs, conc 0.01 μm); 0 in assay [5] (PBLs, conc 0.1 μm); 0 in assay [5] (PBLs, conc 1 μm).
`Nc1nonc1-c1nc2ccccc2n1CC(=O)c1ccc([N+](=O)[O-])cc1` [Example 49]: the IC50 was more than 1 µM in assay [1]; more than 1 µM in assay [2]; 0.1 to 1 µM in assay [3]; 0.1 to 1 µM in assay [4]; more than 1 µM in assay [6]. In addition, the “Hoechst 33342 nuclear staining score” value in assay [5] (H460, conc 0.01 μm) was 0; in assay [5] (H460, conc 0.1 μm) it was 0; in assay [5] (H460, conc 1 μm), 0; in assay [5] (HeLa, conc 0.01 μm), 0; in assay [5] (HeLa, conc 0.1 μm) it was 0; in assay [5] (HeLa, conc 1 μm), 1 (1 relating to weak activity comprising less than 70% of the cells). The “Hoechst 33342 nuclear staining score” value was 0 in assay [5] (Jily, conc 0.01 μm); 0 in assay [5] (Jily, conc 0.1 μm); 1 (1 relating to weak activity comprising less than 70% of the cells) in assay [5] (Jily, conc 1 μm); 0 in assay [5] (Jurkat, conc 0.01 μm); 0 in assay [5] (Jurkat, conc 0.1 μm); 2 (score 2 relating to strong activity comprising more than 70% of the cells) in assay [5] (Jurkat, conc 1 μm). For the same molecule, the “Hoechst 33342 nuclear staining score” value in assay [5] (MRC5, conc 0.01 μm) was 0; in assay [5] (MRC5, conc 0.1 μm) it was 0; in assay [5] (MRC5, conc 1 μm), 0; in assay [5] (PBLs, conc 0.01 μm), 0; in assay [5] (PBLs, conc 0.1 μm) it was 0; in assay [5] (PBLs, conc 1 μm) it was 0.
`Nc1ccc(C(=O)Cn2c(-c3nonc3N)nc3ccccc32)cc1` [Example 50]: the IC50 in assay [1], in assay [2], in assay [3], in assay [4] and in assay [6] was 0.01 to 0.1 µM each time. Moreover, the “Hoechst 33342 nuclear staining score” value in assay [5] (H460, conc 0.01 μm) is 1 (1 relating to weak activity comprising less than 70% of the cells); in assay [5] (H460, conc 0.1 μm) it was 2 (score 2 relating to strong activity comprising more than 70% of the cells); in assay [5] (H460, conc 1 μm), 2 (score 2 relating to strong activity comprising more than 70% of the cells); in assay [5] (HeLa, conc 0.01 μm), 0; in assay [5] (HeLa, conc 0.1 μm), 2 (score 2 relating to strong activity comprising more than 70% of the cells); in assay [5] (HeLa, conc 1 μm), 2 (score 2 relating to strong activity comprising more than 70% of the cells). Also, the “Hoechst 33342 nuclear staining score” value in assay [5] (Jily, conc 0.01 μm) is given as 2 (score 2 relating to strong activity comprising more than 70% of the cells); in assay [5] (Jily, conc 0.1 μm) it was 2 (score 2 relating to strong activity comprising more than 70% of the cells); in assay [5] (Jily, conc 1 μm), 2 (score 2 relating to strong activity comprising more than 70% of the cells); in assay [5] (Jurkat, conc 0.01 μm), 2 (score 2 relating to strong activity comprising more than 70% of the cells); in assay [5] (Jurkat, conc 0.1 μm) it was 2 (score 2 relating to strong activity comprising more than 70% of the cells); in assay [5] (Jurkat, conc 1 μm), 2 (score 2 relating to strong activity comprising more than 70% of the cells). Further, the “Hoechst 33342 nuclear staining score” value in assay [5] (MRC5, conc 0.01 μm) is listed as 0; in assay [5] (MRC5, conc 0.1 μm) it was 2 (score 2 relating to strong activity comprising more than 70% of the cells); in assay [5] (MRC5, conc 1 μm), 2 (score 2 relating to strong activity comprising more than 70% of the cells); in assay [5] (PBLs, conc 0.01 μm), 0; in assay [5] (PBLs, conc 0.1 μm) it was 0; in assay [5] (PBLs, conc 1 μm) it was 0.
Regarding `Cl.Nc1ccc(C(=O)Cn2c(-c3nonc3N)nc3ccccc32)cc1` [Example 51], the IC50 in assay [1], in assay [2], in assay [3], in assay [4] and in assay [6] was 0.01 to 0.1 µM each time. Also, the “Hoechst 33342 nuclear staining score” value in assay [5] (H460, conc 0.01 μm) is given as 0; in assay [5] (H460, conc 0.1 μm), 2 (score 2 relating to strong activity comprising more than 70% of the cells); in assay [5] (H460, conc 1 μm) it was 2 (score 2 relating to strong activity comprising more than 70% of the cells); in assay [5] (HeLa, conc 0.01 μm), 0; in assay [5] (HeLa, conc 0.1 μm), 2 (score 2 relating to strong activity comprising more than 70% of the cells); in assay [5] (HeLa, conc 1 μm) it was 2 (score 2 relating to strong activity comprising more than 70% of the cells). Also, the “Hoechst 33342 nuclear staining score” value in assay [5] (Jily, conc 0.01 μm) was 0; in assay [5] (Jily, conc 0.1 μm) it was 2 (score 2 relating to strong activity comprising more than 70% of the cells); in assay [5] (Jily, conc 1 μm), 2 (score 2 relating to strong activity comprising more than 70% of the cells); in assay [5] (Jurkat, conc 0.01 μm) it was 1 (1 relating to weak activity comprising less than 70% of the cells); in assay [5] (Jurkat, conc 0.1 μm), 2 (score 2 relating to strong activity comprising more than 70% of the cells); in assay [5] (Jurkat, conc 1 μm) it was 2 (score 2 relating to strong activity comprising more than 70% of the cells). Moreover, the “Hoechst 33342 nuclear staining score” value is 0 in assay [5] (MRC5, conc 0.01 μm); 2 (score 2 relating to strong activity comprising more than 70% of the cells) in assay [5] (MRC5, conc 0.1 μm); 2 (score 2 relating to strong activity comprising more than 70% of the cells) in assay [5] (MRC5, conc 1 μm); 0 in assay [5] (PBLs, conc 0.01 μm); 0 in assay [5] (PBLs, conc 0.1 μm); 0 in assay [5] (PBLs, conc 1 μm).
Regarding `N#CCCNc1nonc1-c1nc2ccccc2n1CC(=O)c1ccc([N+](=O)[O-])cc1` [Example 57], the IC50 in assay [1] lay within 0.1 to 1 µM; in assay [2], 0.1 to 1 µM; in assay [3], 0.01 to 0.1 µM; in assay [4] it was 0.01 to 0.1 µM; in assay [6], 0.1 to 1 µM. Also, the “Hoechst 33342 nuclear staining score” value in assay [5] (H460, conc 0.01 μm) was 0; in assay [5] (H460, conc 0.1 μm), 0; in assay [5] (H460, conc 1 μm) it was 0; in assay [5] (HeLa, conc 0.01 μm), 0; in assay [5] (HeLa, conc 0.1 μm) it was 0; in assay [5] (HeLa, conc 1 μm), 2 (score 2 relating to strong activity comprising more than 70% of the cells). Also, the “Hoechst 33342 nuclear staining score” value in assay [5] (Jily, conc 0.01 μm) is listed as 0; in assay [5] (Jily, conc 0.1 μm), 0; in assay [5] (Jily, conc 1 μm), 2 (score 2 relating to strong activity comprising more than 70% of the cells); in assay [5] (Jurkat, conc 0.01 μm), 0; in assay [5] (Jurkat, conc 0.1 μm), 0; in assay [5] (Jurkat, conc 1 μm) it was 2 (score 2 relating to strong activity comprising more than 70% of the cells). In addition, the “Hoechst 33342 nuclear staining score” value in assay [5] (MRC5, conc 0.01 μm) was 0; in assay [5] (MRC5, conc 0.1 μm), 0; in assay [5] (MRC5, conc 1 μm) it was 2 (score 2 relating to strong activity comprising more than 70% of the cells); in assay [5] (PBLs, conc 0.01 μm) it was 0; in assay [5] (PBLs, conc 0.1 μm), 0; in assay [5] (PBLs, conc 1 μm), 0.
